The CheMixHub ionic liquid set
± gives the uncertainty stated by the source.

Test: xn = mol fraction of the nth substance listed

CCCC[P+](CC)(CC)CC.Cc1ncc([N+](=O)[O-])[n-]1 + COCCOCCOCCOCCOC
100 kPa
Settings | viscosity [mPa·s]
278.15 K, x2 = 0.048 | 1540 ± 120
283.15 K, x2 = 0.102 | 631 ± 37
283.15 K, x2 = 0.401 | 99 ± 3
283.15 K, x2 = 0.501 | 57 ± 1
298.15 K, x2 = 0.102 | 208 ± 8
298.15 K, x2 = 0.201 | 130 ± 4
308.15 K, x2 = 0.048 | 159 ± 6
313.15 K, x2 = 0.102 | 90 ± 3

N#CCCCCC#N + CCCC[n+]1ccn(C)c1.O=S(=O)([N-]S(=O)(=O)C(F)(F)F)C(F)(F)F
Settings | electrical conductivity [S/m]
294.5 K, 100 kPa, x2 = 0.02785 | 0.29 ± 0.03

NCC(O)CO (centres undefined) + CC[n+]1ccn(C)c1.[Cl-]
101 kPa, x2 = 0.667
Settings | viscosity [mPa·s]
298.15 K | 321 ± 17
303.15 K | 230 ± 11
313.15 K | 125.5 ± 5.7
323.15 K | 70.2 ± 3
333.15 K | 44.6 ± 1.9

CS(C)=O + CC(=O)[O-].CC[NH2+]CC
Settings | viscosity [mPa·s]
298.15 K, 101 kPa, x2 = 0 | 2.01 ± 0.12

CCCC[N+](CCCC)(CCCC)CCCC.[Cl-] + CCC(=O)O
Settings | viscosity [mPa·s]
298 K, 100 kPa, x1 = 0.5 | 3300

COS(=O)(=O)[O-].Cn1cc[n+](C)c1 + CCOCCO
viscosity [mPa·s], 101 kPa
Settings | x1 = 0.0009004 | x1 = 0.002248 | x1 = 0.003592 | x1 = 0.004932 | x1 = 0.006269 | x1 = 0.007602
293.15 K | 2.1 ± 0.026 | 2.12 ± 0.027 | 2.14 ± 0.026 | 2.16 ± 0.027 | 2.18 ± 0.026 | 2.21 ± 0.026
303.15 K | 1.64 ± 0.024 | 1.66 ± 0.024 | 1.68 ± 0.024 | 1.71 ± 0.024 | 1.73 ± 0.024 | 1.75 ± 0.024
313.15 K | 1.27 ± 0.023 | 1.29 ± 0.023 | 1.32 ± 0.023 | 1.34 ± 0.023 | 1.37 ± 0.023 | 1.39 ± 0.023

CS(C)=O + CC[n+]1ccn(C)c1.COS(=O)(=O)[O-]
100 kPa, x2 = 0
Settings | viscosity [mPa·s]
298.15 K | 1.99 ± 0.04
303.15 K | 1.8 ± 0.04
308.15 K | 1.65 ± 0.04
313.15 K | 1.54 ± 0.03

CCCC[n+]1ccn(C)c1.[Br-] + CCCOCCO
viscosity [mPa·s], 100 kPa
Settings | x1 = 0.1001 | x1 = 0.2003 | x1 = 0.2994 | x1 = 0.4 | x1 = 0.5002 | x1 = 0.6002 | x1 = 0.701 | x1 = 0.7969 | x1 = 0.9003 | x1 = 1
298.15 K | 15.5 ± 1.7 | 50 ± 5.2 | 100 ± 10 | 152 ± 16 | 204 ± 22 | 270 ± 29 | 378 ± 42 | 560 ± 64 | 910 ± 110 | 1451 ± 180
303.15 K | 10.3 ± 1.1 | 28.9 ± 3 | 53.7 ± 5.6 | 81.1 ± 8.5 | 110 ± 12 | 148 ± 16 | 206 ± 22 | 305 ± 34 | 503 ± 58 | 837 ± 99
308.15 K | 7.54 ± 0.78 | 19.1 ± 2 | 35.1 ± 3.6 | 52 ± 5.3 | 69.9 ± 7.2 | 92.1 ± 9.6 | 126 ± 13 | 180 ± 19 | 293 ± 32 | 506 ± 57
313.15 K | 6 ± 0.62 | 14.5 ± 1.5 | 25.9 ± 2.7 | 37 ± 3.8 | 48.8 ± 5 | 61.7 ± 6.4 | 81.8 ± 8.5 | 114 ± 12 | 184 ± 20 | 330 ± 37

CC[n+]1ccn(C)c1.[Cl-] + O=C[C@H](O)[C@@H](O)[C@H](O)[C@H](O)CO
373 K, 100 kPa
Settings | viscosity [mPa·s]
x2 = 0 | 36 ± 14
x2 = 0.0419 | 66 ± 26

CCCC[n+]1ccccc1C.F[B-](F)(F)F + O
298.15 K, 101 kPa
Settings | electrical conductivity [S/m]
x1 = 0.0002702 | 0.13 ± 0.02
x1 = 0.0004161 | 0.188 ± 0.02
x1 = 0.0005097 | 0.233 ± 0.02
x1 = 0.0007329 | 0.319 ± 0.02
x1 = 0.0008948 | 0.368 ± 0.02
x1 = 0.001084 | 0.463 ± 0.02
x1 = 0.001244 | 0.516 ± 0.02
x1 = 0.001427 | 0.588 ± 0.02
x1 = 0.001581 | 0.634 ± 0.02
x1 = 0.001768 | 0.707 ± 0.02
x1 = 0.001923 | 0.76 ± 0.02
x1 = 0.002048 | 0.787 ± 0.02
x1 = 0.00219 | 0.841 ± 0.02
x1 = 0.002294 | 0.878 ± 0.02
x1 = 0.002423 | 0.917 ± 0.02
x1 = 0.002448 | 0.92 ± 0.02
x1 = 0.002543 | 0.96 ± 0.02
x1 = 0.002708 | 1 ± 0.02
x1 = 0.002791 | 1.03 ± 0.02

CCCCCCCCCC[N+](CC)(CC)CCCCCCCCCC.[Br-] + O
electrical conductivity [S/m]
Settings | 290.55 K | 290.75 K | 290.85 K | 292.05 K | 301.55 K | 303.15 K | 304.55 K | 306.65 K | 311.65 K
100 kPa, x1 = 1.08e-06 | – | – | – | – | – | 0.0029 ± 0.0012 | – | – | –
101 kPa, x1 = 0.0004187 | 0.031 ± 0.013 | 0.033 ± 0.013 | 0.034 ± 0.014 | 0.053 ± 0.022 | 0.079 ± 0.032 | – | 0.082 ± 0.033 | 0.084 ± 0.034 | 0.089 ± 0.036

CCCC[N+](CCCC)(CCCC)CCCC.[Cl-] + OCCOCCOCCO
Settings | electrical conductivity, 293.15 K [S/m] | electrical conductivity, 303.15 K [S/m] | electrical conductivity, 313.15 K [S/m] | electrical conductivity, 323.15 K [S/m] | electrical conductivity, 333.15 K [S/m] | viscosity, 293.15 K [mPa·s] | viscosity, 303.15 K [mPa·s] | viscosity, 313.15 K [mPa·s] | viscosity, 323.15 K [mPa·s] | viscosity, 333.15 K [mPa·s]
100 kPa, x1 = 0.1667 | 0.0683 ± 0.0068 | 0.099 ± 0.01 | 0.141 ± 0.014 | 0.196 ± 0.02 | 0.268 ± 0.027 | 126 ± 15 | 82.6 ± 5.6 | 55.6 ± 1.2 | 38.4 ± 1.3 | 27.1 ± 0.9
100 kPa, x1 = 0.333 | 0.049 ± 0.0049 | 0.0739 ± 0.0074 | 0.109 ± 0.011 | 0.156 ± 0.016 | 0.219 ± 0.022 | 277 ± 62 | 179 ± 30 | 119 ± 14 | 81.4 ± 5.4 | 56.8 ± 1.4
101 kPa, x2 = 0.25 | – | – | – | – | – | – | – | – | 910 ± 120 | –

CCCC[n+]1ccn(C)c1.[Br-] + CCOCCO
viscosity [mPa·s], 100 kPa
Settings | x1 = 0.1002 | x1 = 0.2001 | x1 = 0.3007 | x1 = 0.3992 | x1 = 0.5001 | x1 = 0.5986 | x1 = 0.7001 | x1 = 0.8005 | x1 = 0.9002 | x1 = 1
298.15 K | 12.5 ± 1.4 | 42.5 ± 4.4 | 88.9 ± 9.2 | 139 ± 14 | 191 ± 20 | 253 ± 27 | 356 ± 39 | 541 ± 62 | 880 ± 100 | 1451 ± 180
303.15 K | 8.68 ± 0.91 | 25.6 ± 2.7 | 51.1 ± 5.3 | 78.5 ± 8.2 | 108 ± 11 | 142 ± 15 | 197 ± 21 | 295 ± 33 | 480 ± 55 | 837 ± 99
308.15 K | 6.44 ± 0.67 | 17.4 ± 1.8 | 32.8 ± 3.4 | 50 ± 5.1 | 67 ± 6.9 | 87.1 ± 9.1 | 117 ± 12 | 171 ± 18 | 278 ± 31 | 506 ± 57
313.15 K | 5.02 ± 0.52 | 12.5 ± 1.3 | 23 ± 2.4 | 34.3 ± 3.5 | 45.3 ± 4.7 | 58.1 ± 6 | 75.6 ± 7.9 | 108 ± 11 | 171 ± 18 | 330 ± 37
